These results are taken from patent US8198330B2, “Therapeutic or prophylactic agent for diabetes, obesity, dyslipidemia or metabolic syndrome comprising benzylamine derivative or pharmaceutically acceptable acid addition salt thereof” (Toray Industries, Inc., priority 2008, dated 2012).

One data set deals with KK/Ay mice. Kind of data set: Efficacy in Type 2 diabetes-model mice (KK/Ay mice). The class given is in vivo, mouse. How it is done:
KK/Ay male mice of 5 weeks of age (CLEA Japan, Inc.) were purchased; a feeding stuff for growth CMF (Oriental Yeast) was provided since the day of arrival; and mice after growth for 3 weeks or longer were used. The compound of Example 1 was diluted to 2 mg/mL, as it is dissolved in physiological saline, and the solution was administered subcutaneously in an amount of 5 mL/kg, by using a disposable syringe (Terumo) and a 26G injection needle (Terumo). Physiological saline was administered to the mice in the vehicle group. The solution was administered once a day from the day of first administration (day 0) to day 13, and the tail vein was cut open with a knife (disposable scalpel, FEATHER) and the blood sugar was determined with a simplified blood sugar analyzer (MediSense Precision Xceed, Abotto Japan). Statistical treatment of the individual data obtained was carried out by a two-group test (unpaired t-test).

A further data set relates to DIO mice. Kind of data set: Efficacy in diabetes/obesity-model mice (DIO mice): blood sugar, body weight, fat, triglyceride. The class given is in vivo, mouse. The settings on record: for Weight of the fat around the mouse testicles / Blood sugar / Increase in body weight / Triglyceride: DIO mouse; for Weight of the fat around the mouse testicles: after ITT (day 27); for Blood sugar / Increase in body weight / Triglyceride: day 26; for Triglyceride: plasma. How it is done: C57BL/6J mice grown on a solid feeding stuff containing 60% fat (D12492, Research Diets) since 4 weeks of age, (male, Charles River Laboratories, Japan, 13 weeks of age) were purchased and mice of 16 weeks of age grown on D12492 since the day of arrival were used. C57BL/6J mice of 16 weeks of age grown on normal food since the day of arrival were used in the normal group. The compound of Example 1 was diluted to 2 mg/mL or 0.6 mg/mL, as it is dissolved in physiological saline, and the solution was administered subcutaneously in an amount of 5 mL/kg, by using a disposable syringe (Terumo) and a 26G injection needle (Terumo). Physiological saline was administered in the vehicle group. The solution was administered once a day from the day of first administration (day 0) to day 26. The body weight was determined on day 26; the tail vein was cut open with a knife (disposable scalpel, FEATHER); and the blood sugar was determined with a simplified blood sugar analyzer (MediSense Precision Xceed, Abotto Japan).
The blood was collected (approximately 70 μL) from the same site by using a heparin-treated capillary (Hematokrit Kapilaren, 75 μL, […] LABORGERATE) and the collected blood was centrifuged (12,000 rpm, 7 min, 4° C.) in a hematocrit centrifuge (KUBOTA3100, Kubota Corp.) and the plasma was stored, as it is frozen in an Eppendorf tube, until it is used for measurement of triglyceride. The triglyceride measurement was carried out by using Triglyceride E-Test Wako (Wako Pure Chemical Industries). Four μL of the sample was added to 250 μL of the coloring liquid, after reaction at 37° C. for 1 hour, and the absorbance (595 nm) of the mixture was determined by using a microplate reader (Bio-Rad, Model 680). Separately, insulin tolerance test (ITT) was performed on day 27.
The insulin level was measured by using an insulin measurement kit (Lebis Insulin Mouse U, Shibayagi). Finally, HOMA-IR was also calculated from the values of fasting blood sugar and fasting insulin. The weight of the fat around the mouse testicles was also determined after measurement of ITT. Statistical treatment of the individual data obtained was carried out by a two-group test (unpaired t-test) or a multiplex comparison test (parametric Williams test).

Another data set has as its system conscious rat. Kind of data set: Effect on the cardiovascular system (heart rate) of conscious rat. The conditions noted are these: conscious SD rat, s.c. 1, 3 and 10 mg/kg at 30 minute intervals, FIG. 2. The class given is in vivo. As to the method:
SD male rats of 7 weeks of age (Charles River Laboratories Japan Inc.) were purchased and used when they are 8 weeks of age. The rats were anesthetized by intraperitoneal administration of pentobarbital at 60 mg/kg; the back central region and the femoral region were cut open; a polyethylene tube (SP-31, Natsume Seisakusho Co., Ltd.) connected to a polyurethane tube (BC-3.5P, American Access Technologies) was inserted from the back to the femoral region, to place the polyethylene tube in femoral artery. After the femoral region was sutured, a flexible stainless steel pipe containing the polyethylene tube was sutured and fixed to the back skin. Heparin at 100 IU to 200 IU/mL was filled into the polyethylene tube and the polyurethane tube for prevention of blood clotting. After surgical operation, the rats were placed and grown back in 5-compartment wire mesh cage. […]
The heart rate of the rats was determined, by sending the pulse wave obtained in the blood pressure amplifier (AP-641G, Nihon Kohden Corp.) attached to the Life Kit for monitoring blood pressure to an instantaneous heart rate meter unit (AT-601T, Nihon Kohden Corp.). The heart rate was recorded on the chart paper in a thermal multirecorder (RIA-1300A, Nihon Kohden Corp.) by using a polygraph (RM-6000, Nihon Kohden Corp.). […]

With `COc1cc(CN[C@@H](C)[C@H](O)c2ccc(O)c(NS(C)(=O)=O)c2)cc(OC)c1` [Example 1, N-(5-((1R,2S)-2-(3,5-Dimethoxybenzylamino)-1-hydroxypropyl)-2-hydroxyphenyl)methanesulfonamide], in the data set on KK/Ay mice, the “blood sugar versus solvent group” value is “lowered the blood sugar statistically significantly”. The compound also gave a Blood sugar with KK/Ay mice (10 mg/kg s.c. once a day, day 0 to day 13) of 336 ± 33 mg/dL. Moreover, in the data set with DIO mice (DIO mice), the blood sugar-reducing effect result was “significant blood sugar-reducing effect”, the “increase in body weight versus vehicle group” value was “Significant suppression of increase in body weight”, the “plasma triglyceride (TG) versus vehicle group” value was “declined statistically significantly” and the “weight of the fat around the mouse testicles versus vehicle group” value is given as “declined significantly”. Moreover, in the data set with DIO mice (3 mg/kg s.c. once a day), the “Weight of the fat around the mouse testicles” value worked out at 2.6 ± 0.1 g, the Blood sugar was 177 ± 9 mg/dL, the “Increase in body weight” value is reported as 3.5 ± 0.6 g and the Triglyceride is 162 ± 14 mg/dL. Besides, in the data set on DIO mice (10 mg/kg s.c. once a day), the “Weight of the fat around the mouse testicles” value was found to be 2.3 ± 0.1 g, the Blood sugar worked out at 168 ± 8 mg/dL, the “Increase in body weight” value was found to be 2.1 ± 0.5 g and the Triglyceride is recorded as 129 ± 9 mg/dL. The “influence on heart rate” value in the data set with conscious rat is listed as “did not have any influence on rat heart rate”.
